Experimental data: patent publication US20250026752A1, “POSITIVE ALLOSTERIC MODULATORS OF THE MUSCARINIC ACETYLCHOLINE RECEPTOR M4” (Vanderbilt University, priority 2021, published 2025)

Biological target: T1, human mAChR M4 (Homo sapiens, UniProt P08173)
T1 construct: expressed in transfected cells; host or cells: CHO-K1 (ATCC), stably expressing hM4 and Gqi5
T1 sequence (P08173 1-479): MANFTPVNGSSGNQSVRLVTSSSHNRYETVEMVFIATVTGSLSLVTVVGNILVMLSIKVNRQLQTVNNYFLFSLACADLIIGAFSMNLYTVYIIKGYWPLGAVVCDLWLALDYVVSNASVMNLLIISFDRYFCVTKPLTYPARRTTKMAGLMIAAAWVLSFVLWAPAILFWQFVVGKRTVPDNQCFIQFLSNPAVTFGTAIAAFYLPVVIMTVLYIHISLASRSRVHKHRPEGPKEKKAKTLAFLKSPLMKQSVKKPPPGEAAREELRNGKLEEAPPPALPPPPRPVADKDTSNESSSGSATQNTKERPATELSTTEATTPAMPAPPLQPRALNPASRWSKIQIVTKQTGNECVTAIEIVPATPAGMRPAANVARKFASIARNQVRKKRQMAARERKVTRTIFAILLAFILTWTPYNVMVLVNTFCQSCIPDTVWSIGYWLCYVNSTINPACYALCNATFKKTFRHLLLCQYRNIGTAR
Test: mAChR M4 cell-based functional assay: calcium flux (Fluo-4, FDSS), positive allosteric modulator activity on the EC20 acetylcholine response, hM4-Gqi5 CHO-K1 cells
Conditions: for Emax at 30 µM: CHO-K1, human M4; for EC50: PAM activity on EC20 acetylcholine response, calcium flux, read-out: Human M4 EC50
Summary of the method: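 Potentiation was taken as the concentration-dependent rise in the EC20 acetylcholine calcium response, fitted by a four-parameter logistic with EC20 as baseline. Fluo-4-loaded hM4-Gqi5 CHO-K1 cells received 11-point, threefold-diluted compound before acetylcholine at 144 s; FDSS read at 1 Hz.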

SMILES	Emax at 30 µM (% ACh maximum at 30 μM) [%]	EC50 (human M4) [nM]	Emax (%) (human M4, % ACh maximum at 30 μM)
Clc1ccc2ncnc(N3CCc4ncc(N5CCCn6nccc65)cc4C3)c2c1 [Compound 83, 6-chloro-4-[3-(6,7-dihydro-5H-pyrazolo[1,5-a]pyrimidin-4-yl)-7,8-dihydro-5H-1,6-naphthyridin-6-yl]quinazoline]	108	20	
CC1CN(c2ncnc3ccc(F)cc23)Cc2cc(C(F)(F)F)cnc21 (single isomer, unassigned) [Compound 117, 6-fluoro-4-[(8R or S)-8-methyl-3-(trifluoromethyl)-7,8-dihydro-5H-1,6-naphthyridin-6-yl]quinazoline]		400	100
Cc1nc(N2CCc3ncc(N4CCO[C@H](c5ccccc5)C4)cc3C2)c2cc(F)ccc2n1 [Compound 217, (R)-4-(6-(6-fluoro-2-methylquinazolin-4-yl)-5,6,7,8-tetrahydro-1,6-naphthyridin-3-yl)-2-phenylmorpholine]	84	1700	
CC1CN(c2ncnc3cc(F)c(F)cc23)Cc2cc(N3CCOCC3)cnc21 (stereo not shown) [Compound 252, 4-(6-(6,7-difluoroquinazolin-4-yl)-8-methyl-5,6,7,8-tetrahydro-1,6-naphthyridin-3-yl)morpholine]	90	150	
Fc1ccccc1Oc1cnc2c(c1)CN(c1ncnc3ccc(Cl)cc13)CC2 [Compound 232, 6-chloro-4-(3-(2-fluorophenoxy)-7,8-dihydro-1,6-naphthyridin-6(5H)-yl)quinazoline]	77	740	
Cc1nc(N2CCc3ncc(-c4cc(C(F)(F)F)nn4C)cc3C2)c2cc(Cl)ccc2n1 [Compound 257, 6-chloro-2-methyl-4-(3-(1-methyl-3-(trifluoromethyl)-1H-pyrazol-5-yl)-7,8-dihydro-1,6-naphthyridin-6(5H)-yl)quinazoline]	87	830	
CC1(C)CN(c2cnc3c(c2)CN(c2ncnc4cc(F)c(F)cc24)CC3)CCO1 [Compound 242, 4-(6-(6,7-difluoroquinazolin-4-yl)-5,6,7,8-tetrahydro-1,6-naphthyridin-3-yl)-2,2-dimethylmorpholine]	90	30	
CC(C)(C)c1cc2n(n1)CCCN2c1cnc2c(c1)CN(c1ncnc3ccc(F)cc13)CC2 [Compound 279, 4-(3-(2-(tert-butyl)-6,7-dihydropyrazolo[1,5-a]pyrimidin-4(5H)-yl)-7,8-dihydro-1,6-naphthyridin-6(5H)-yl)-6-fluoroquinazoline]	72	810	
Cc1nn(C)cc1-c1cnc2c(c1)CN(c1nc(Cl)nc3ccc(Cl)cc13)CC2 [Compound 28, 2,6-dichloro-4-[3-(1,3-dimethylpyrazol-4-yl)-7,8-dihydro-5H-1,6-naphthyridin-6-yl]quinazoline]	103	570	
FC(F)(F)c1ccc2ncnc(N3CCc4ncc(N5CCOc6ncccc65)cc4C3)c2c1 [Compound 215, 1-(6-(6-(trifluoromethyl)quinazolin-4-yl)-5,6,7,8-tetrahydro-1,6-naphthyridin-3-yl)-2,3-dihydro-1H-pyrido[2,3-b][1,4]oxazine]	107	1610	
Clc1ccc2ncnc(N3CCc4ncc(N5CCOc6ncccc65)cc4C3)c2c1 [Compound 105, 1-[6-(6-chloroquinazolin-4-yl)-7,8-dihydro-5H-1,6-naphthyridin-3-yl]-2,3-dihydropyrido[2,3-b][1,4]oxazine]	91	70	
CC1CN(c2ncnc3ccc(F)cc23)Cc2cc(Nc3cccnc3)cnc21 (stereo not shown) [Compound 234, 6-(6-fluoroquinazolin-4-yl)-8-methyl-N-(pyridin-3-yl)-5,6,7,8-tetrahydro-1,6-naphthyridin-3-amine]	86	110	
Fc1ccc2ncnc(N3CCc4ncc(N5CCCn6nc(C7CC7)cc65)cc4C3)c2c1 [Compound 280, 4-(3-(2-cyclopropyl-6,7-dihydropyrazolo[1,5-a]pyrimidin-4(5H)-yl)-7,8-dihydro-1,6-naphthyridin-6(5H)-yl)-6-fluoroquinazoline]	90	390	
Fc1cc2ncnc(N3CCc4ncc(-c5cnn(C6CC6)c5)cc4C3)c2cc1F [Compound 54, 4-[3-(1-cyclopropylpyrazol-4-yl)-7,8-dihydro-5H-1,6-naphthyridin-6-yl]-6,7-difluoro-quinazoline]	85	200	
Fc1ccc2nc(Cl)nc(N3CCc4ncc(N5CCCn6nccc65)cc4C3)c2c1 [Compound 87, 2-chloro-4-[3-(6,7-dihydro-5H-pyrazolo[1,5-a]pyrimidin-4-yl)-7,8-dihydro-5H-1,6-naphthyridin-6-yl]-6-fluoro-quinazoline]	110	190	
Cc1nc(N2CCc3ncc(N4CCOc5ncccc54)cc3C2)c2cc(F)ccc2n1 [Compound 85, 1-[6-(6-fluoro-2-methyl-quinazolin-4-yl)-7,8-dihydro-5H-1,6-naphthyridin-3-yl]-2,3-dihydropyrido[2,3-b][1,4]oxazine]	85	30	
Cn1nccc1-c1cnc2c(c1)CN(c1ncnc3ccc(F)cc13)CC2 [Compound 18, 6-fluoro-4-[3-(2-methylpyrazol-3-yl)-7,8-dihydro-5H-1,6-naphthyridin-6-yl]quinazoline]	70	40	
Fc1cc2ncnc(N3CCc4ncc(-c5ccnn5C5COC5)cc4C3)c2cc1F [Compound 269, 6,7-difluoro-4-(3-(1-(oxetan-3-yl)-1H-pyrazol-5-yl)-7,8-dihydro-1,6-naphthyridin-6(5H)-yl)quinazoline]	79	1600	
Cc1noc(C)c1-c1cnc2c(c1)CN(c1nc(-c3c(C)noc3C)nc3ccc(Cl)cc13)CC2 [Compound 187, 4-[6-chloro-4-[3-(3,5-dimethylisoxazol-4-yl)-7,8-dihydro-5H-1,6-naphthyridin-6-yl]quinazolin-2-yl]-3,5-dimethyl-isoxazole]	79	4150	
Cn1nccc1Nc1cnc2c(c1)CN(c1nc(NC3CCCOC3)nc3ccc(F)cc13)CC2 (stereo not shown) [Compound 213, 6-fluoro-4-[3-[(2-methylpyrazol-3-yl)amino]-7,8-dihydro-5H-1,6-naphthyridin-6-yl]-N-tetrahydropyran-3-yl-quinazolin-2-amine]	86	490	
Fc1cc2ncnc(N3CCc4ncc(Nc5cccnc5F)cc4C3)c2cc1F [Compound 243, 6-(6,7-difluoroquinazolin-4-yl)-N-(2-fluoropyridin-3-yl)-5,6,7,8-tetrahydro-1,6-naphthyridin-3-amine]	91	70	
Cc1ccc(Oc2cnc3c(c2)CN(c2ncnc4ccc(Cl)cc24)CC3)c(F)c1 [Compound 145, 6-chloro-4-[3-(2-fluoro-4-methyl-phenoxy)-7,8-dihydro-5H-1,6-naphthyridin-6-yl]quinazoline]	64	4800	
Cc1ccc(F)c(Oc2cnc3c(c2)CN(c2ncnc4ccc(F)cc24)CC3)c1 [Compound 148, 6-fluoro-4-[3-(2-fluoro-5-methyl-phenoxy)-7,8-dihydro-5H-1,6-naphthyridin-6-yl]quinazoline]	88	760	
